The values that follow come from US12415810B2, “2'-isopropyl-spiro (3,3'-pyrrolidine oxindole) liver X receptor regulator, preparation method therefor, and use thereof” (SHENZHEN CELL INSPIRE PHARMACEUTICAL DEVELOPMENT CO., LTD., priority 2019, dated 2025).

One test deals with HepG2 cells. The experiment in a line: Triglyceride test in HepG2 cells induced by high glucose. Conditions: concentration of 10 μM, 24 hours. Format: cell-based, human. The protocol: (2) HepG2 cells were seeded in a 12-well plate, cultured with DMEM (low sugar) medium and starved for 12 hours. When the cells grow to a density of 70%, the medium was changed to DMEM (high sugar) medium and the compound was added to act for 24 hours.

Test [1] relates to SREBP-1c, ACC, FAS and SCD-1. In words: mRNA content of LXR downstream genes by qPCR in 3T3-L1 cells. Format: cell-based, mouse. Conditions: day 6 of differentiation. As for the experimental part: (§1) HepG2 cells were seeded in a 6-well plate with a cell density of 8×10^5 cells/well and incubated for 24 hours. The compounds to be tested were added and acted for 24 hours, and then the cells were harvested. The 3T3-L1 cells were harvested on day 6 of differentiation. The cells were washed twice with PBS, total RNA was extracted with RNAiso plus reagent, 1 μg of total RNA was reverse transcribed into cDNA using ReverTra Ace qPCR RT Master Mix, and PCR amplification was performed using SYBR Green Realtime PCR Master Mix.

The next test concerns liver X receptors. In words: Liver X receptor activity test, (subtype not named). To be noted: summary of Table 1. Format: cell-based, human. The protocol: (1) Cell culture: human embryonic kidney cells (HEK293T cells) were cultured in DMEM (high glucose) medium containing 10% fetal bovine serum and 1% penicillin-streptomycin under conditions of 37° C. and 5% CO2.
(2) Transfection: HEK293T cells were seeded in a 96-well plate with a cell density of 2×10^4 cells/well. After 24 hours, the cells were transfected according to instructions of Lipofectamine™ 3000 reagent. The specific steps of transfection were as follows: • (1) adding 15 μL of L3000 reagent to 500 μL of DMEM (high sugar) medium, and vortex oscillating for 2 seconds; • (2) mixing 6.5 μg of pGL3/(DR-4)-c-fos-FF-luc plasmid, 0.13 μg of pCMV/Renilla-luc plasmid, 1.3 μg of pSG5/hLXRα (or pSG5/hLXRβ plasmid), 1.3 μg of pSG5/hRXRα plasmid, and 19 μL of P3000 reagent in 500 μL of DMEM (high sugar) medium; • (3) adding the plasmid mixture to a liposome mixture and standing by at room temperature for 20 minutes; and • (4) adding 10 μL of liposome-DNA solution to each well of the 96-well plate, and gently shaking the 96-well plate to mix well.
(3) Drug intervention: after 5 hours of transfection, the compounds to be tested were added, and the plate was placed in an incubator to continue culturing for 20 hours.
(4) Detection: dual-luciferase reporter gene system was used for detection. The specific steps of detection were as follows: • (1) aspirating the original medium in the 96-well plate, adding cell lysate to the 96-well plate at 20 μL/well, and quickly shaking the plate at room temperature for 20 minutes; • (2) adding samples to a 384-well plate at 20 μL/well; • (3) adding firefly luciferase substrate to each well at 10 μL/well, and measuring chemiluminescence after 7 seconds; and • (4) adding Renilla luciferase substrate to the same sample well at 100 μL/well, and measuring chemiluminescence after 7 seconds.
Result processing: the results were analyzed using Renilla luciferase activity to correct the firefly luciferase activity.

For another test, the system named is 3T3-L1 cells. In words: cells. To be noted: Mus musculus, 3T3-L1, 144 h, read-out: IC50 for lowering the triglyceride level in 3T3-L1 cells.
The test system of test [2] is Triton WR-1339-induced hyperlipidemia mice. The experiment in a line: Lipid-lowering activity in Triton WR-1339-induced hyperlipidemia mice. In kind it is in vivo, C57BL/6J mice. Conditions: 100 mg/kg intragastric for 8 days. The protocol:
6-week-old SPF female C57BL/6J mice were purchased from the Experimental Animal Center of Sun Yat-sen University. The mice were randomly divided into 4 groups each including 6 mice, i.e., a normal control group, model a group, a fenofibrate group (100 mg/kg), and a B1 group (100 mg/kg), and intragastric administration was performed for 8 days. 24 hours before the last administration, the normal control group was intramuscularly injected with saline, and the remaining groups were injected with Triton WR-1339 (1500 mg/kg). One hour after the last administration, the eyeballs were removed to collect blood, the mice were executed by cervical dislocation, and the livers were collected. The plasma was allowed to stand for 1 hour, and the supernatant was collected by centrifugation at 4° C. and 3000 rpm. 100 mg of liver was weighed, added with methanol in 3 times the volume of the weighed liver, and homogenized thoroughly. Chloroform was then added in 6 times the volume and vortex oscillated. After centrifuging at 3000 rpm for 10 minutes, the lower chloroform layer was collected, and evaporated naturally overnight in a fume hood. 150 μL of 1% Triton ethanol was added and heated at 65° C. to be fully dissolved. Finally, triglycerides (TG), total cholesterol (TC), low-density lipoprotein cholesterol (LDL-C), and high-density lipoprotein cholesterol (HDL-C) in serum and liver samples were detected.

Test [3] deals with SREBP-1c, ACC, FAS and SCD-1. In words: mRNA content of LXR downstream genes by qPCR in HepG2 cells. Conditions: 24 hours. In kind it is cell-based, human. As for the experimental part:
as §1

Molecules are shown by their SMILES.

For `CC(C)[C@H]1N(C(=O)OC(C)(C)C)CC[C@]12C(=O)N(c1cccc(-c3ccc(CO)c(S(C)(=O)=O)c3)c1)c1ccccc12` [Compound 2a-1], in the test with HepG2 cells, the “triglyceride accumulation in HepG2 cells induced by high glucose” value was “significantly reduce”. In test [1], the “mRNA content of ACC” value is “reduced the mRNA content of SREBP-1c, ACC, FAS and SCD-1 in a concentration-dependent manner”; the “mRNA content of FAS” value is “reduced the mRNA content of SREBP-1c, ACC, FAS and SCD-1 in a concentration-dependent manner”; the “mRNA content of SCD-1” value is “reduced the mRNA content of SREBP-1c, ACC, FAS and SCD-1 in a concentration-dependent manner”; the “mRNA content of SREBP-1c” value was “reduced the mRNA content of SREBP-1c, ACC, FAS and SCD-1 in a concentration-dependent manner”. Moreover, in the test on liver X receptors, the “inverse activation of liver X receptors (in words)” value is recorded as “can inversely activate liver X receptors”. For the same compound, in the test on 3T3-L1 cells, the IC50 came to 270 ± 30 nM. Moreover, the “triglyceride content in the livers of mice” value in test [2] (liver) was “can reduce the triglyceride content”. In test [2] (serum), the HDL-C/LDL-C level entry is “slightly increased”, the HDL-C/TC result is “Neither fenofibrate nor compound 2a-1 had a significant effect”, the “increase in HDL-C level induced by Triton WR-1339” value is given as “significantly inhibit” and the “increase in LDL-C level induced by Triton WR-1339” value was “significantly inhibit”. For the same compound, in test [2] (serum), the “increase in TC level induced by Triton WR-1339” value was “significantly inhibit” and the “increase in TG level induced by Triton WR-1339” value is “significantly inhibit”. In addition, in test [3], the “mRNA content of ACC” value is “significantly reduced”, the “mRNA content of FAS” value is given as “significantly reduced”, the “mRNA content of SCD-1” value is “significantly reduced” and the “mRNA content of SREBP-1c” value is on record as “significantly reduced”.

As a reminder, the IC50 is the concentration that gives 50% inhibition.
